≈ marks a conversion by molar mass, not a printed value. Calls of active or inactive are those of the source. No cut-off for these calls is given here.
Assays:
[1] = target: Phosphatidylinositol 4-kinase type 2-alpha (Homo sapiens) (UniProt Q9BTU6); experiment: Inhibition of recombinant human full length GST-tagged PI4K2alpha expressed in insect cells at 10 uM
[2] = target: Phosphatidylinositol 4-kinase type 2-beta (Homo sapiens) (UniProt Q8TCG2); experiment: Inhibition of recombinant human full length GST-tagged PI4K2beta expressed in insect cells at 10 uM
[3] = target: Phosphatidylinositol 4-kinase alpha (Homo sapiens) (UniProt P42356); experiment: Inhibition of PI4K3alpha (unknown origin) at 10 uM
[4] = target: T1, Voltage-gated inwardly rectifying potassium channel KCNH2 (Homo sapiens, UniProt Q12809)
[5] = in vitro; conditions: human
[6] = in vitro; conditions: mouse
[7] = physchem; conditions: phosphate buffer, pH 7.4
[8] = physchem
[9] = Thermodynamic solubility of the compound in pH 7.4 solution after 90 mins by UVLC-MS analysis; format: physicochemical; conditions: for Therm_solubility: buffer, pH 7.4, 1.5 h
[10] = target: T1, Voltage-gated inwardly rectifying potassium channel KCNH2; remark: listed apart in the source
[11] = target: T2, Cytochrome P450 3A4 (Homo sapiens, UniProt P08684); conditions: liver microsomes
[12] = target: T2, Cytochrome P450 3A4
[13] = buffer, pH 7.4, 1.5 h
[14] = buffer, 1.5 h, pH 7.4

T1 sequence (Q12809 whole entry): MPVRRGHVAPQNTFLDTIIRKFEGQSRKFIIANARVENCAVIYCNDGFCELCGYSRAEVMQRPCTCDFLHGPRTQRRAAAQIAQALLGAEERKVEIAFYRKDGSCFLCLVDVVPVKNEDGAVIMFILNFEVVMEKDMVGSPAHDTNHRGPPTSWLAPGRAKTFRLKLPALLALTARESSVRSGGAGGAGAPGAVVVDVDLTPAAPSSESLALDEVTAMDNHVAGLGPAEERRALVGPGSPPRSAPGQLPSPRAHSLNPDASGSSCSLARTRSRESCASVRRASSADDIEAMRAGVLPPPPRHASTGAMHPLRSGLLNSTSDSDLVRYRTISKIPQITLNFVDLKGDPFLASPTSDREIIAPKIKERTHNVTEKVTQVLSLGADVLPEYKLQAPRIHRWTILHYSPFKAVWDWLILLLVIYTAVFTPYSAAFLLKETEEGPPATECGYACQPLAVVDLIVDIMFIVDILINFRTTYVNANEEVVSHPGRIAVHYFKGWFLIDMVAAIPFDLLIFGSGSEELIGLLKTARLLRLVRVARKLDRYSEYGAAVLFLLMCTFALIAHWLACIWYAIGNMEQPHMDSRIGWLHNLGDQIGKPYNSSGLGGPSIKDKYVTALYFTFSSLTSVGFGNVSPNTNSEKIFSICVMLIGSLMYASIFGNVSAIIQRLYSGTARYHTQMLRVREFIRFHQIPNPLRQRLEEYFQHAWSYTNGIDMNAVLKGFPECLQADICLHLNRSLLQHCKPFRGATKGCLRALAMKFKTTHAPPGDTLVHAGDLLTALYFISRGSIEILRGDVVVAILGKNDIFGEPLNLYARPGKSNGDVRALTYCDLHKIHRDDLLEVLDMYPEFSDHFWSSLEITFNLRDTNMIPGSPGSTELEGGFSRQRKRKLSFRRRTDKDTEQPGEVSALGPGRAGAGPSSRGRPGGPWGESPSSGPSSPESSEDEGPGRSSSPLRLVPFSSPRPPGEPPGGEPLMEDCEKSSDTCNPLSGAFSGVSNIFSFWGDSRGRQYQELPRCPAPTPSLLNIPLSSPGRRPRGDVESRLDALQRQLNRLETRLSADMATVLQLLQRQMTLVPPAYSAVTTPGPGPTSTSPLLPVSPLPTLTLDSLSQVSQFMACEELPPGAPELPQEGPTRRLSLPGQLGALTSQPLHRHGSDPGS
T2 sequence (P08684 whole entry): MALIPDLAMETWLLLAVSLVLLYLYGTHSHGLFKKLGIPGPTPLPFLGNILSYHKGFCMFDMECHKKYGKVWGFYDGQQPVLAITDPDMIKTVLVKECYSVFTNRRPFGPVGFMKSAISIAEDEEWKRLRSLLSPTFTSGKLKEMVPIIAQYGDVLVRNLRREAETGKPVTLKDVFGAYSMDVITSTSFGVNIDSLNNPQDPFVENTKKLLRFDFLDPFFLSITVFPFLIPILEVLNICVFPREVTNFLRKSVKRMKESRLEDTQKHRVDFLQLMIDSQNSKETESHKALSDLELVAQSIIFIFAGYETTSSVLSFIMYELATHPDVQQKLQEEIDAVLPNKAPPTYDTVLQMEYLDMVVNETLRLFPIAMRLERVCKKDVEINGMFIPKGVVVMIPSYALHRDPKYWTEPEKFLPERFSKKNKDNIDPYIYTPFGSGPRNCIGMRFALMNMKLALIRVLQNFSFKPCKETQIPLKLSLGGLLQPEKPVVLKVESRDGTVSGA
Phosphatidylinositol 4-kinase alpha (Homo sapiens), sequence (P42356 whole entry, looked up): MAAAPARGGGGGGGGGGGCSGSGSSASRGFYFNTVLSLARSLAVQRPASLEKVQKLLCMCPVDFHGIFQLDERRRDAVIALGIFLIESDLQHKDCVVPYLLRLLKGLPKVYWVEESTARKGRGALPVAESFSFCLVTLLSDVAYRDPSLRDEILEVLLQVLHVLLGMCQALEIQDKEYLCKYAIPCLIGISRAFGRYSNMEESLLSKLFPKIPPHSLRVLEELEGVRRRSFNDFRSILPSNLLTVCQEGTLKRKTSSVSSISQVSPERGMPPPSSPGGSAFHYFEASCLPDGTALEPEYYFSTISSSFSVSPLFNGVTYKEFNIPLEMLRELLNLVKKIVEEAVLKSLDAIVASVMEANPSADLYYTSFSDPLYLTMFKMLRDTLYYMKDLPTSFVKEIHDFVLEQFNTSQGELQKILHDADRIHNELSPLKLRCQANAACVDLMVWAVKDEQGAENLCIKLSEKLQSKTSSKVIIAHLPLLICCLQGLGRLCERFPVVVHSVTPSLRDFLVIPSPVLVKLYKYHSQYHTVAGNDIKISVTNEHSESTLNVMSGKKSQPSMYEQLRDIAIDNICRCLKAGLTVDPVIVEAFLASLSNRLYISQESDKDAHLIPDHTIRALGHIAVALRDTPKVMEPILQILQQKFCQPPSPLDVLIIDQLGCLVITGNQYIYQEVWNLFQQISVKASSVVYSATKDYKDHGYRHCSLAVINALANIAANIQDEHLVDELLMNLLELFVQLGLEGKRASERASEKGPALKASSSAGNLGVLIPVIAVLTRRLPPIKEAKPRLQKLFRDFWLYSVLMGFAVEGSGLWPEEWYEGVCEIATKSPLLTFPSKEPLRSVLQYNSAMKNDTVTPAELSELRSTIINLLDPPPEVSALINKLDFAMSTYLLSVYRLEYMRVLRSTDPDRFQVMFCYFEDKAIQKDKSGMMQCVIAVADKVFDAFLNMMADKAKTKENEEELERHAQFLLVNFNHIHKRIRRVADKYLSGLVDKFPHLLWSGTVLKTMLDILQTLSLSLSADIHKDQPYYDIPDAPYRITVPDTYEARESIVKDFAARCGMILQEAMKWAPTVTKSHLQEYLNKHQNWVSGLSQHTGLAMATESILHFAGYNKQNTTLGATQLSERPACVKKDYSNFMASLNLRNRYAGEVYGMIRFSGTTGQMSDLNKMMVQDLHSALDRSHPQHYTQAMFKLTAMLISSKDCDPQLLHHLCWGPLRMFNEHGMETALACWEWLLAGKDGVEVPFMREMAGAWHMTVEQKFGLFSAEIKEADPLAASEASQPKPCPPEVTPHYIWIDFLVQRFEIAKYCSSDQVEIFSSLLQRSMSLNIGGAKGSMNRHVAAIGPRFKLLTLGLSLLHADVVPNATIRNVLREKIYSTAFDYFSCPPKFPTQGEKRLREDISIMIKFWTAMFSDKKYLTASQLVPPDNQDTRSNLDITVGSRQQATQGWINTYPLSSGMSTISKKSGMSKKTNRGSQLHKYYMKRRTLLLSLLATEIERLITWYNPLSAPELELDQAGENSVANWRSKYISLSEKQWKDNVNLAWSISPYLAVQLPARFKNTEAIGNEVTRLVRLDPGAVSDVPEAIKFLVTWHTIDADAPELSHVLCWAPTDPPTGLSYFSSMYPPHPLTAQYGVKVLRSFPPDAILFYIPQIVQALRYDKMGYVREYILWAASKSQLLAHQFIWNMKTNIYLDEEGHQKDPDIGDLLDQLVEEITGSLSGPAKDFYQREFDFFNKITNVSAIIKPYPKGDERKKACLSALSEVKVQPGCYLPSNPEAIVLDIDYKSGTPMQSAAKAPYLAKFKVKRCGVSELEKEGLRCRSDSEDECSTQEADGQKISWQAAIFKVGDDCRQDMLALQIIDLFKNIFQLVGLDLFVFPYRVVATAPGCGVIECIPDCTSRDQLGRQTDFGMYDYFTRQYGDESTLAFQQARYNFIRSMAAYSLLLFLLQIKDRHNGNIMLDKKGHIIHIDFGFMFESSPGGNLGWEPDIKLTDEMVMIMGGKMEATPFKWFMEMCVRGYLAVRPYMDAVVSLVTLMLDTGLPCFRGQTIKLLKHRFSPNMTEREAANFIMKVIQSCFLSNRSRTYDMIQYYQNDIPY
Phosphatidylinositol 4-kinase type 2-alpha (Homo sapiens), sequence (Q9BTU6 whole entry): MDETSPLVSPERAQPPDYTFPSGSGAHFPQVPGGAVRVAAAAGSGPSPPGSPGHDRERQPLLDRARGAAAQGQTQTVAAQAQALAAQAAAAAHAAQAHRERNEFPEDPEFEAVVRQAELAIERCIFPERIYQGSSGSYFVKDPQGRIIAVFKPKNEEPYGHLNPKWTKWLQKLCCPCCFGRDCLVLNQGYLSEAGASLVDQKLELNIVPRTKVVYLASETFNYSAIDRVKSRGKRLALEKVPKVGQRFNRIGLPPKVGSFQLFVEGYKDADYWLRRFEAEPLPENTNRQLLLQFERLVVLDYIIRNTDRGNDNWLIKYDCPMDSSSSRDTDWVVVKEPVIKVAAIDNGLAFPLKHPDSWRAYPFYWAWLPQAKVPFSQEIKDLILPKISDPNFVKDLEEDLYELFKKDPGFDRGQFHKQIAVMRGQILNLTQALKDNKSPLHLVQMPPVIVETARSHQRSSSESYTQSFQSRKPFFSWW
Phosphatidylinositol 4-kinase type 2-beta (Homo sapiens), sequence (Q8TCG2 whole entry): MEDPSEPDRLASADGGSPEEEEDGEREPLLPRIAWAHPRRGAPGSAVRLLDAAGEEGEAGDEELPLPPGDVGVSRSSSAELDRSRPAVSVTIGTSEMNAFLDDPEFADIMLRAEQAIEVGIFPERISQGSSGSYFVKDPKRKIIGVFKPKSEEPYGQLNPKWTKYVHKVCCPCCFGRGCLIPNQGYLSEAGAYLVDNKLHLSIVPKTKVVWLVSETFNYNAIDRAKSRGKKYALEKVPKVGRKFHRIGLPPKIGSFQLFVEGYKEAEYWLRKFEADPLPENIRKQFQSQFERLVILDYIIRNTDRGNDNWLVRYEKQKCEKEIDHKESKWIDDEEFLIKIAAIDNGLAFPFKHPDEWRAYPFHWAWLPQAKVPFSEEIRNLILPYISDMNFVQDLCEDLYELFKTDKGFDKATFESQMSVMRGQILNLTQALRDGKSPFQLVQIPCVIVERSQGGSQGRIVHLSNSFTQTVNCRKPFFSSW

| SMILES | logD at 1.5 h [7] | solubility kinetic at 1.5 h ([8]; buffer, pH 7.4) [µM] | IC50 [11] | IC50 [10] | further results |
| --- | --- | --- | --- | --- | --- |
| Cc1ccc(NC(=O)N2CCN(c3nc(N)nc4sc(-c5cccnc5)nc34)CC2)cc1 | 3.42 |  |  |  | inhibition [1]: inactive; inhibition [2]: inactive; inhibition [3]: inactive; IC50 [4]: 2 µM; microsomal CLint at 0.75 h, 3 µM ([5]; microsomes): 32 µL/min/mg; microsomal CLint at 0.75 h, 3 µM ([6]; microsomes): 72 µL/min/mg; solubility kinetic at 1.5 h ([8]; pH 7.4 solution): 9 µM (≈ 4.02 µg/mL) |
| Nc1nc(N2CCN(C(=O)c3cn4ccccc4n3)CC2)c2ncsc2n1 | 1.58 | > 350 |  |  |  |
| COc1ccc(NC(=O)N2CCN(c3nc(N)nc4scnc34)CC2C)cc1 (stereo not drawn) |  | > 350 | Nd(Insoluble) | Nd(Insoluble) | Therm_solubility [9]: Nd(Insoluble) |
| COc1ccc(NC(=O)N2CCN(c3nc(N)nc4scnc34)CC2)cn1 | 1.79 | 293 (≈ 113 µg/mL) |  |  |  |
| COc1ccc(NC(=O)N2CCN(c3nc(N)nc4scnc34)CC2)c(C)n1 | 1.65 | 207 (≈ 82.9 µg/mL) |  |  |  |
| COc1ccc(NC(=O)N2CC3CCC(C2)N3c2nc(N)nc3scnc23)cc1 |  | > 350 | Nd(Insoluble) | Nd(Insoluble) | Therm_solubility [9]: Nd(Insoluble) |
| COc1ccc(NC(=O)N2C[C@H](C)N(c3nc(N)nc4scnc34)C[C@H]2C)cc1 |  | 88 (≈ 36.4 µg/mL) | Nd(Insoluble) | Nd(Insoluble) | Therm_solubility [9]: Nd(Insoluble) |
| COc1ccc(NC(=O)N2CCN(c3nc(N)nc4scnc34)[C@@H](C)C2)c(C)n1 |  | > 350 |  |  | solubility thermodynamic at 1.5 h ([9]; pH 7.4 solution, pH 7.4, read-out: Therm_solubility): 362 µM (≈ 150 µg/mL); IC50 [4]: > 30 µM; IC50 [12]: > 20 µM |
| Nc1nc(N2CCN(C(=O)Nc3cccnc3)CC2)c2ncsc2n1 | 1.46 | > 350 |  |  |  |
| Nc1nc(N2CCN(C(=O)c3cc4ccccc4[nH]3)CC2)c2ncsc2n1 | 2.84 | 14 (≈ 5.31 µg/mL) |  |  |  |
| COc1ccc(NC(=O)N2CCN(c3nc(N)nc4scnc34)C(C)C2)cc1 (stereo not drawn) |  | > 350 | Nd(Insoluble) | Nd(Insoluble) | Therm_solubility [9]: Nd(Insoluble) |
| COc1ccc(NC(=O)N2CCN(c3nc(N)nc4scnc34)C(C)C2C)cc1 (stereo not drawn) |  | > 350 | Nd(Insoluble) | Nd(Insoluble) | Therm_solubility [9]: Nd(Insoluble) |

Now from value to compound, other results behind:

| logD at 1.5 h [7] | solubility kinetic at 1.5 h ([8]; buffer, pH 7.4) [µM] | IC50 [11] | SMILES | IC50 [10] | further results |
| --- | --- | --- | --- | --- | --- |
| 2.03 | 33 (≈ 13.2 µg/mL) |  | COc1ccc(NC(=O)N2CCN(c3nc(N)nc4scnc34)CC2)c(C)c1 |  |  |
| 2.68 | 13 (≈ 5.26 µg/mL) |  | Nc1nc(N2CCN(C(=O)COc3ccc(Cl)cc3)CC2)c2ncsc2n1 |  |  |
| 3.39 | 12 (≈ 5.27 µg/mL) |  | Nc1nc(N2CCN(C(=O)Nc3ccc(OC(F)(F)F)cc3)CC2)c2ncsc2n1 |  |  |
| 2.22 | 33 (≈ 13.2 µg/mL) |  | COc1ccc(CNC(=O)N2CCN(c3nc(N)nc4scnc34)CC2)cc1 |  |  |
| 2.55 | 21 (≈ 7.76 µg/mL) |  | Cc1ccc(NC(=O)N2CCN(c3nc(N)nc4scnc34)CC2)cc1 |  |  |
|  |  | Nd(Insoluble) | Nc1nc(N2CCN(C(=O)COc3ccc(Cl)cc3)CC2)c2nc(-c3cccnc3)sc2n1 | Nd(Insoluble) | logD [13]: Nd(Insoluble); Kinetic_solubility [14]: Nd(Insoluble); microsomal CLint at 0.75 h, 3 µM ([5]; liver microsomes): 34 µL/min/mg; microsomal CLint at 0.75 h, 3 µM ([6]; liver microsomes): 133 µL/min/mg |

Source: ChEMBL document CHEMBL4190408 (J Med Chem, 2018)
